These results are taken from US6921810B2, “Bifunctional antibiotics” (The Scripps Research Institute, priority 2000, dated 2005).

Converted amounts (≈) assume the structure as drawn.

Data set [1] relates to NCC1OC(OC2C(N)CC(N)C(O)C2OCC(=O)NCCCNC(=O)COC2C(O)C(N)CC(N)C2OC2OC(CN)C(O)C(O)C2N)C(N)C(O)C1O. Nature of the data set: Km as substrate for APH(3′)-IIIa (3′-O-phosphorylation). It counts as biochemical. Particulars: other: 3′-O-phosphorylation. How it is done:
(§1) They were in fact potent competitive inhibitors of the APH(2″) activity, Kis=0.8 μM for dimer 4, 0.1 μM for 6 and 0.7 μM for 27.
(§2) BF refers to the bifunctional enzyme AAC(6′)-APH(2″), where the particular activity is indicated. The neamine data were obtained from Daigle, D. M.; et al. Chem. Biol. 1999, 6, 99.

For data set [2], the system named is NCC1OC(OC2C(N)CC(N)C(O)C2OCC(=O)NCCCCCNC(=O)COC2C(O)C(N)CC(N)C2OC2OC(CN)C(O)C(O)C2N)C(N)C(O)C1O. The description is as above. It counts as biochemical. Particulars: other: 3′-O-phosphorylation. As for the experimental part:
as §1, §2

Data set [3] has as its system CN(CCCCN(C)CC(O)COC1C(O)C(N)CC(N)C1OC1OC(CN)C(O)C(O)C1N)CC(O)COC1C(O)C(N)CC(N)C1OC1OC(CN)C(O)C(O)C1N. The data set is described as above. Conditions: other: 3′-O-phosphorylation. The data set is classed as biochemical. As for the experimental part:
as §1, §2

The test system of data set [4] is E. coli 16S rRNA A-site (AS-wt). Description: Surface plasmon resonance binding to immobilized biotinylated A-site rRNA. Particulars: SPR; for Kd: AS-wt; for affinity for AS-wt relative to neamine: compared with neamine. How it is done: The dissociation constant (Kd) and binding stoichiometry were determined using surface plasmon resonance (SPR) against an immobilized rRNA sequence modeling the A-site of prokaryotic rRNA (FIGS. 1-4) (Hendrix, M.; et al. J. Am. Chem. Soc. 1997, 119, 3641; Wong, C.-H.; et al. Chem. Biol. 1998, 5, 397). […] We focused on neamine as it represents the simplest effective aminoglycoside antibiotic and contains the key β-hydroxyamine motif for interaction with the phosphodiester group and the Hoogsteen face of guanine residues in RNA (FIG. 2) (Hendrix, M.; et al. Angew. Chem., Int. Ed. Engl. 1997, 36, 95). […] Various dimers of neamine were therefore constructed in order to identify a bivalent aminoglycoside that would bind AS-wt with high affinity (FIG. 4), and at the same time resist and/or inhibit the modifying enzymes due to its unnatural structure (Some aminoglycoside dimers were prepared previously; however, the monomers bind the A-site stoichiometrically: see Michael; K.; et al. Bioorg. Med. Chem. 1999, 7, 1361; for vancomycin dimers, see Rao, J.; Whitesides, G. H. J. Am. Chem. Soc. 1997, 119, 10286; Sundram, U. N.; et al. J. Am. Chem. Soc. 1996, 118, 13107).
Reactions were performed under inert atmosphere unless otherwise stated. THF and CH2Cl2 were distilled under Ar with benzophenone ketyl and CaH2, respectively. NMR spectra were obtained on a Bruker AMX-400. The sites of enzymatic modification of neomycin and gentamicin that cause drug resistance are shown in FIG. 1 (Daigle, D. M.; et al. Chem. Biol. 1999, 6, 99). Synthesis of biotinylated RNAs and surface plasmon resonance experiments were performed as previously described and Kd values were also calculated as previously described (FIG. 2) (Hendrix, M.; et al. J. Am. Chem. Soc. 1997, 119, 3641).

Data set [5] concerns NCC1OC(OC2C(N)CC(N)C(O)C2OCC(=O)NCCCNC(=O)COC2C(O)C(N)CC(N)C2OC2OC(CN)C(O)C(O)C2N)C(N)C(O)C1O. Description: Km as substrate for AAC(6′)-Ii (6′-N-acetylation). The data set is classed as biochemical. Conditions: other: 6′-N-acetylation. As for the experimental part:
as §1, §2

Data set [6] relates to NCC1OC(OC2C(N)CC(N)C(O)C2OCC(=O)NCCCCCNC(=O)COC2C(O)C(N)CC(N)C2OC2OC(CN)C(O)C(O)C2N)C(N)C(O)C1O. Nature of the data set: Km as substrate for AAC(6′)-Ii (6′-N-acetylation). Conditions: other: 6′-N-acetylation. The data set is classed as biochemical. As for the experimental part: as §1, §2
The test system of data set [7] is CN(CCCCN(C)CC(O)COC1C(O)C(N)CC(N)C1OC1OC(CN)C(O)C(O)C1N)CC(O)COC1C(O)C(N)CC(N)C1OC1OC(CN)C(O)C(O)C1N. Nature of the data set: Km as substrate for AAC(6′)-Ii (6′-N-acetylation). It counts as biochemical. Conditions: other: 6′-N-acetylation. How it is done: as §1, §2
The target of data set [8] is AAC(6′) activity of AAC(6′)-APH(2″) (Staphylococcus aureus, UniProt P0A0C1). Description: Aminoglycoside-modifying enzyme kinetics, AAC(6′) activity of the bifunctional enzyme. It counts as biochemical. Particulars: in words. How it is done: as §1, §2
In data set [9] the target is APH(2″) activity of AAC(6′)-APH(2″) (Staphylococcus aureus, UniProt P0A0C1). Description: Aminoglycoside-modifying enzyme kinetics, APH(2″) activity of the bifunctional enzyme. It counts as biochemical. Particulars: for substrate for APH(2″) activity: in words. How it is done: as §1, §2
The target of a further data set is APH(3′)-IIIa (Enterococcus faecalis, UniProt P0A3Y5). Nature of the data set: Aminoglycoside-modifying enzyme kinetics, APH(3′)-IIIa. The data set is classed as biochemical. Conditions: in words. As for the experimental part: as §1, §2
The test system of another data set is E. coli ATCC 25922. Description: Antimicrobial testing (MIC, NCCLS M7-A4). It counts as cell-based. Particulars: Escherichia coli, ATCC25922; E. coli reference strain. How it is done: (§3) Antimicrobial Testing: The Kirby-Bauer Disk assay was performed as previously described (Hendrix, M.; et al. J. Am. Chem. Soc. 1997, 119, 3641; Phillips, I.; Williams, D. In Laboratory Methods in Antimicrobial Chemotherapy; Gerrod, L., Ed.; Churchill Livingstone Press: Edinburg, 1978; pp 3-30). Reference strains E. coli ATCC 25922 and S. aureus ATCC 25923 were obtained as lyophilized pellets (Difco). MIC testing was performed as recommended in the NCCLS Publication M7-A4.

Another data set addresses AAC(6′)-Ii (Enterococcus faecium, UniProt Q47764). Nature of the data set: Aminoglycoside-modifying enzyme kinetics, AAC(6′)-Ii. It counts as biochemical. Conditions: in words. As for the experimental part: as §1, §2
The subject of data set [10] is NCC1OC(OC2C(N)CC(N)C(O)C2OCC(=O)NCCCNC(=O)COC2C(O)C(N)CC(N)C2OC2OC(CN)C(O)C(O)C2N)C(N)C(O)C1O. Description: Km as substrate for the AAC(6′) acetyltransferase activity of the bifunctional enzyme AAC(6′)-APH(2″) (BF). Conditions: other: acetyltransferase activity of the bifunctional enzyme (BF). It counts as biochemical. How it is done:
as §1, §2

Data set [11] has as its system NCC1OC(OC2C(N)CC(N)C(O)C2OCC(=O)NCCCCCNC(=O)COC2C(O)C(N)CC(N)C2OC2OC(CN)C(O)C(O)C2N)C(N)C(O)C1O. The description is as above. The data set is classed as biochemical. Particulars: other: acetyltransferase activity of the bifunctional enzyme (BF). As for the experimental part:
as §1, §2

Data set [12] concerns CN(CCCCN(C)CC(O)COC1C(O)C(N)CC(N)C1OC1OC(CN)C(O)C(O)C1N)CC(O)COC1C(O)C(N)CC(N)C1OC1OC(CN)C(O)C(O)C1N. The data set is described as above. The data set is classed as biochemical. Conditions: other: acetyltransferase activity of the bifunctional enzyme (BF). How it is done:
as §1, §2

The next data set relates to E. faecalis ATCC 29212. Nature of the data set: Antibiotic activity against other strains. It counts as cell-based. Particulars: in words. As for the experimental part: as §3
In data set [13] the test system is S. aureus ATCC 33591-MRSA. Nature of the data set: Antibiotic activity against other strains. The data set is classed as cell-based. Particulars: in words. How it is done: as §3
Another data set has as its system S. aureus ATCC 29213. Description: Antibiotic activity against other strains. Conditions: in words. The data set is classed as cell-based. As for the experimental part: as §3
The next data set relates to P. aeruginosa ATCC 27853. Nature of the data set: Antibiotic activity against other strains. It counts as cell-based. Particulars: in words. As for the experimental part:
as §3

In a further data set the test system is P. aeruginosa, PAO-1. Nature of the data set: Antibiotic activity against other strains. It counts as cell-based. Conditions: in words. How it is done: as §3
Data set [14] relates to tobramycin-resistant strain of P. aeruginosa from cystic fibrosis patients. Nature of the data set: Antibiotic activity against a tobramycin-resistant strain. The data set is classed as cell-based. Particulars: compared with tobramycin.

AAC(6′)-Ii, sequence (Q47764 entry or part of it): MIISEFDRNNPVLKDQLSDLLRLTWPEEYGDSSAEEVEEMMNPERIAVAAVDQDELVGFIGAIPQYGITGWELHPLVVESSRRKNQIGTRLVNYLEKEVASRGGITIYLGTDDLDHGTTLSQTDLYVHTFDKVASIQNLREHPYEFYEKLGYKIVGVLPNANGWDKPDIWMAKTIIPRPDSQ
AAC(6′) activity of AAC(6′)-APH(2″), sequence (P0A0C1 whole entry): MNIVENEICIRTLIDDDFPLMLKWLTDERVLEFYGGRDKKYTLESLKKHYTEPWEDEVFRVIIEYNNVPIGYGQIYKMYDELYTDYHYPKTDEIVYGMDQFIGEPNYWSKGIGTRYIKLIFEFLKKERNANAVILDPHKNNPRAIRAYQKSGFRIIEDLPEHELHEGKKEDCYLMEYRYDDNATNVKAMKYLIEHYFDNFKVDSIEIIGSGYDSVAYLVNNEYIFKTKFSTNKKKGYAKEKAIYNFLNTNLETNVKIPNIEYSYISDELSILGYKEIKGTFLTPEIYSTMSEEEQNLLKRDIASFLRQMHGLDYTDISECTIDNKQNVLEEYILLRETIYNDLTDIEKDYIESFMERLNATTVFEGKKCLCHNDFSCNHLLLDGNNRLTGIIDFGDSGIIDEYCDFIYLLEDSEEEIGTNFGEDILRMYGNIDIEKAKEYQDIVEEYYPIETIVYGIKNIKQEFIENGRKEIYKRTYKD
APH(2″) activity of AAC(6′)-APH(2″), sequence (P0A0C1 whole entry): as above
APH(3′)-IIIa, sequence (P0A3Y5 whole entry): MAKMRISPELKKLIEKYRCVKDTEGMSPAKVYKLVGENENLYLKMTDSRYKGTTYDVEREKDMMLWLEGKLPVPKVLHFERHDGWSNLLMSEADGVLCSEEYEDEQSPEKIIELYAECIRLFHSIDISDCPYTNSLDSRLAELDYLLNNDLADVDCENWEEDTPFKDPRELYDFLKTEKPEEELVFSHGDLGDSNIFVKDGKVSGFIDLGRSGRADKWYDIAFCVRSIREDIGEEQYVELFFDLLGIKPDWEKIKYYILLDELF

The Km is the concentration of substrate that gives half-maximal velocity. APH(3′)-IIIa (Enterococcus faecalis): the Michaelis constant (Km) in data set [1] turned out to be 0.82 µM; in data set [2], 2.66 µM; in data set [3], 1.1 µM.
For orientation: Kd means the constant that tells how readily two partners part at equilibrium. The low end stands for a tighter complex, the high end for a looser complex. Take `NC[C@H]1O[C@H](O[C@H]2[C@H](O)[C@@H](O)[C@H](N)C[C@@H]2N)[C@H](N)[C@@H](O)[C@@H]1O` [neamine, reference compound]: binding in data set [4] (for neamine per binding site) was put at a Kd of 10000 nM.
AAC(6′)-Ii (Enterococcus faecium): the results for the Km in [5], in [6] and in [7] were 53.4 µM, 83.6 µM and 28.7 µM, respectively.
The term Ki denotes the equilibrium dissociation constant of an inhibitor or competing ligand from its target. Higher therefore signals weaker binding. What is called MIC is the lowest concentration that inhibits growth of the organism. A low value points to inhibition by little substance. Regarding `NCC1OC(OC2C(N)CC(N)C(O)C2OCC(=O)NCCCNC(=O)COC2C(O)C(N)CC(N)C2OC2OC(CN)C(O)C(O)C2N)C(N)C(O)C1O` (stereo not drawn) [Dimer 4, N,N′-1,3-bis(5-Ethylcarboxyl-neamine)propylamide], the “substrate for AAC(6′) activity of bifunctional enzyme” value (“substrate for AAC(6′) activity” for short) in data set [8] is “poor substrates”. Moreover, in data set [9], the Ki turned out to be 800 nM and the “substrate for APH(2″) activity” value is reported as “not substrates”. Moreover, at APH(3′)-IIIa, the “substrate for APH(3′)-IIIa” value is reported as “poor substrates”. The MIC against E. coli ATCC 25922 amounted to 31 µM (≈ 24.8 µg/mL). The Kd in data set [4] (for neamine per binding site) turned out to be 1100 nM. The “affinity for AS-wt relative to neamine” value in [4] is given as “ten-fold greater than neamine”. For the same compound, on AAC(6′)-Ii, the “substrate for AAC(6′)-Ii” value is “poor substrates”.
On to “AAC(6′) activity of the bifunctional aminoglycoside modifying-enzyme AAC(6′)-APH(2″) (Staphylococcus aureus)”, for which the Km in data set [10] was determined as 0.84 µM; in data set [11], 4.22 µM; in [12] it was 0.53 µM.
For `NCC1OC(OC2C(N)CC(N)C(O)C2OCC(=O)NCCCCCNC(=O)COC2C(O)C(N)CC(N)C2OC2OC(CN)C(O)C(O)C2N)C(N)C(O)C1O` (stereo not drawn) [Dimer 6, N,N′-1,3-bis(5-Ethylcarboxyl-neamine)pentylamide], in data set [8], the “substrate for AAC(6′) activity” value is “poor substrates”. For the same compound, in data set [9], the affinity, expressed as Ki, was 100 nM and the “substrate for APH(2″) activity” value is “not substrates”. Moreover, at APH(3′)-IIIa, the “substrate for APH(3′)-IIIa” value is given as “poor substrates”. This compound also registered an MIC against E. coli ATCC 25922 of 125 µM (≈ 103 µg/mL). Further, binding in data set [4] (for neamine per binding site) was characterised by a dissociation constant (Kd) of 800 nM. Also, the “affinity for AS-wt relative to neamine” value in data set [4] is “ten-fold greater than neamine”. The “substrate for AAC(6′)-Ii” value at AAC(6′)-Ii is given as “poor substrates”.
Regarding `CN(CCCCN(C)CC(O)COC1C(O)C(N)CC(N)C1OC1OC(CN)C(O)C(O)C1N)CC(O)COC1C(O)C(N)CC(N)C1OC1OC(CN)C(O)C(O)C1N` (stereo not drawn) [Dimer 27], the “substrate for AAC(6′) activity” value in data set [8] is listed as “poor substrates”. Besides, the antibiotic activity entry is on record as “effective” in the data set with E. faecalis ATCC 29212; “effective” in [13]; “effective” with S. aureus ATCC 29213; “effective” with P. aeruginosa ATCC 27853; “effective” in the data set on P. aeruginosa, PAO-1. The affinity in data set [9] corresponds to a Ki of 700 nM. In addition, the “substrate for APH(2″) activity” value in [9] was “not substrates”. Further, the “substrate for APH(3′)-IIIa” value at APH(3′)-IIIa is “poor substrates”. Further, the “effectiveness relative to tobramycin” value in [14] worked out at 3 times. The compound also came in with an MIC in the data set on E. coli ATCC 25922 of 6.25 µM (≈ 5.46 µg/mL). In [4], this compound displayed a Kd of 40 nM. For the same compound, the “substrate for AAC(6′)-Ii” value at AAC(6′)-Ii was “poor substrates”.
